Source: patent publication US9914724B2, “C-aryl glycosid derivatives, pharmaceutical composition, preparation process and uses thereof” (SHANGHAI DE NOVO PHARMATECH CO. LTD., priority 2014, dated 2018)

Columns and labels:
SGLT-2 = target: T1, SGLT-2 (Homo sapiens, UniProt P31639); assay: [14C]-AMG absorption in stable SGLT2 expressing Flp-in CHO cells (SGLT-2 activity screening assay); assay type: cell-based; conditions: 14C-AMG uptake, 37° C. 1 h, 1% DMSO
T1 sequence (P31639 1-672): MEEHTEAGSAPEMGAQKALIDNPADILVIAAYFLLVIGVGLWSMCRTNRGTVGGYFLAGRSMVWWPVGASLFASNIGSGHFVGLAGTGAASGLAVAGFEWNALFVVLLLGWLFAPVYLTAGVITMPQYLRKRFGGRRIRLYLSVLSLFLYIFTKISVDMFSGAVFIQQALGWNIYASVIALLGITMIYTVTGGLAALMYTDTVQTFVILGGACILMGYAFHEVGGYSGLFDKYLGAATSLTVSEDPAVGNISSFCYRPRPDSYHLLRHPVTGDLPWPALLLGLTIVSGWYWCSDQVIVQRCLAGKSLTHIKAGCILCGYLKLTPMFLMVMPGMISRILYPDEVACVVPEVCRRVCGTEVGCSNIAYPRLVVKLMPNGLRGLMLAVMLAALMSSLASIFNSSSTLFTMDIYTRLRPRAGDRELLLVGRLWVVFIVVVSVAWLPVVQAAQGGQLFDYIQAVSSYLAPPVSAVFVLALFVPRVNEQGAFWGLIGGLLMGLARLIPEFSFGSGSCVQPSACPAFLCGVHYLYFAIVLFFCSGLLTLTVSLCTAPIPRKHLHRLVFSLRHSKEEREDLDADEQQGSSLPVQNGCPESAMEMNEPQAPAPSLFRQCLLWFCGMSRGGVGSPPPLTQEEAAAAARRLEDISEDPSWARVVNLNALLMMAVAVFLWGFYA
Source text: (§1) Example 1: [^14C]-AMG Absorption in Stable SGLT1 and SGLT2 Expressing Flp-in CHO Cells (SGLT-1 and SGLT-2 Activity Screening Assay)
(§2) SGLT-1 and SGLT-2 cDNA clones were purchased from OriGene. After sequencing verification, the expression vectors were constructed based on pcDNA5/FRT using conventional molecular biology method. The expression vector was transfected into Flp-in CHO cells using Lipofectamin 2000. The transfected cells were subject hygromycin selection. The single clones of cells were selected by serial dilutions 4-5 weeks after transfection. The expression of SGLT-1 ? SGLT-2 were confirmed by RT-PCR and functional assay and cell line with strong signal was selected for subsequent study.
(§3) Culture of stable SGLT-1 and SGLT-2 expressing Flp-in CHO cell line: the culture media contain F12 medium (Invitrogen), 500 μg/ml hygromycin (Calbiochem) and 10% FBS (Invitrogen). Upon 80% confluency, the cells in the T75 flask were washed three times with PBS (Invitrogen), and 5 mL of Trpsin-EDTA solution (Invitrogen) was then added. The flask was gently rotated so that all the cells were submerged in the digestion solution. After the cells detach, 10 mL of culture medium was added and single cell suspension was prepared by pipetting up and down. The cell concentration was adjusted to 3×10^5/mL, 100 μL/well was added onto clear bottom 96-well plate (Corning).
(§4) The cells were ready for absorption assay once they attached after overnight culture. 12 h after cell plating, the cells were washed once with 150 μL/well absorption solution KRH-NMG (120 mM NMG, 4.7 mM KCl, 1.2 mM MgCl2, 2.2 mM CaCl2, 10 mM HEPES, pH 7.4 1 mM Tris). The solution was then removed from the well. 2.5 μCi/mL ^14C labeled AMG (PerkinElmer) Buffer KRH-Na+ (120 mM NaCl, 4.7 mM KCl, 1.2 mM MgCl2, 2.2 mM CaCl2, 10 mM HEPES, pH 7.4 1 mM Tris) was added at […] after washing with Buffer KRH-Na+ and KRH-NMG. The corresponding compound I was immediately added at 5 μL/well, ensuring the concentration of Dimethyl Sulfoxide was 1% (v/v). The plate was subsequently incubated at 37° C. for 1 h, after which 150 μL of ice cold wash buffer (120 mM NaCl, 4.7 mM KCl, 1.2 mM MgCl2, 2.2 mM CaCl2, 10 mM HEPES, 0.5 mM phlorizin, pH 7.4 1 mM Tris) was immediately added to terminate the reaction. Each well was washed three times with wash buffer and finally the solution was removed. Caution was taken to avoid cell detachment during the procedure. 20 μL/well of Lysis Buffer (0.1 mM NaOH) was added, the plate was vortexed at 900 rpm for 5 min. 80 μL/well of scintillation solution Microsint40 was added, and vortexed at 900 rpm for 5 min. The radioactivity was assayed using MicroBeta Trilux (PerkinElmer). The data was analyzed and IC50 of the compounds was calculated using XL-fit software.

SGLT-1 = target: T2, SGLT-1 (Homo sapiens, UniProt P13866); assay: [14C]-AMG absorption in stable SGLT1 expressing Flp-in CHO cells (SGLT-1 activity screening assay); assay type: cell-based; conditions: 14C-AMG uptake, 37° C. 1 h, 1% DMSO
T2 sequence (P13866 1-664): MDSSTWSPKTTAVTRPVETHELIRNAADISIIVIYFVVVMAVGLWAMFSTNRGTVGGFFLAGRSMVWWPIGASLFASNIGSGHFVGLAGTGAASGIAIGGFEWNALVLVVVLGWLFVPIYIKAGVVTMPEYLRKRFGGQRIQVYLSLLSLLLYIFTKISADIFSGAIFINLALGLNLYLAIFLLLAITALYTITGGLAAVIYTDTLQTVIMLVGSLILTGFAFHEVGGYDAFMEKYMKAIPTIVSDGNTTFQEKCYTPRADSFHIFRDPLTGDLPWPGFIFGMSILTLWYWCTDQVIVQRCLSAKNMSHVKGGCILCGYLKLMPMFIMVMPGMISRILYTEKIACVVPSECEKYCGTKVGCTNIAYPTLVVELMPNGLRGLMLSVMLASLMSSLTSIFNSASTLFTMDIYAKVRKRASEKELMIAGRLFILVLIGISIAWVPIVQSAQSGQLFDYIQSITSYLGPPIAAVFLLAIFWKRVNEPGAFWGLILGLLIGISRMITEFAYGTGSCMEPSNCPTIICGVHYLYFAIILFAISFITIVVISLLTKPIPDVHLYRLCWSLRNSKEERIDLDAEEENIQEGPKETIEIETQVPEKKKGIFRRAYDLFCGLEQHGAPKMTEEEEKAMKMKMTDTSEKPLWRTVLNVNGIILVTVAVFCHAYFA
Source text: as §1, §2, §3, §4

Structure (SMILES)	IC50 (SGLT-2) [nM]	IC50 (SGLT-1) [nM]
COc1ccc([C@@H]2O[C@H](CO)[C@@H](O)[C@H](O)[C@H]2O)cc1Cc1ccc(OCc2cc3ccccc3o2)cc1 [Compound I-5, (2S,3R,4R,5S,6R)-2-(3-(4-(benzofuran-2-ylmethoxy)benzyl)-4-methoxyphenyl)-6-(hydroxymethyl)tetrahydro-2H-pyran-3,4,5-triol]	18	1510
COc1ccc([C@@H]2O[C@H](CO)[C@@H](O)[C@H](O)[C@H]2O)cc1Cc1ccc(OCC2Cc3ccccc3O2)cc1 (stereo partly drawn) [Compound I-29, (2S,3R,4R,5S,6R)-2-(3-(4-((2,3-dihydrobenzofuran-2-yl)methoxy)benzyl)-4-methoxyphenyl)-6-(hydroxymethyl)tetrahydro-2H-pyran-3,4,5-triol]	59	220
CC1(COc2ccc(Cc3cc([C@@H]4O[C@H](CO)[C@@H](O)[C@H](O)[C@H]4O)ccc3Cl)cc2)OCc2ccccc21 (single isomer, unassigned) [Compound I-115]	12.7	725
OC[C@H]1O[C@@H](c2ccc(Cl)c(Cc3ccc(OCc4cc5ccc(F)cc5o4)cc3)c2)[C@H](O)[C@@H](O)[C@@H]1O [Compound I-9, (2S,3R,4R,5S,6R)-2-(4-chloro-3-(4-((6-fluorobenzofuran-2-yl)methoxy)benzyl)phenyl)-6-(hydroxymethyl)tetrahydro-2H-pyran-3,4,5-triol]	13	151
Cc1ccc([C@@H]2O[C@H](CO)[C@@H](O)[C@H](O)[C@H]2O)cc1Cc1ccc(OCC2(C)Cc3ccccc3O2)cc1 (single isomer, unassigned) [Compound I-110]	12.9	244
OC[C@H]1O[C@@H](c2ccc(F)c(Cc3ccc(OCC4Cc5ccccc5O4)cc3)c2)[C@H](O)[C@@H](O)[C@@H]1O (stereo partly drawn) [Compound I-21, (2S,3R,4R,5S,6R)-2-(3-(4-((2,3-dihydrobenzofuran-2-yl)methoxy)benzyl)-4-fluorophenyl)-6-(hydroxymethyl)tetrahydro-2H-pyran-3,4,5-triol]	13	4300
OC[C@H]1O[C@@H](c2ccc(Cl)c(Cc3ccc(OCc4cc5cccc(F)c5o4)cc3)c2)[C@H](O)[C@@H](O)[C@@H]1O [Compound I-10, (2S,3R,4R,5S,6R)-2-(4-chloro-3-(4-((7-fluorobenzofuran-2-yl)methoxy)benzyl)phenyl)-6-(hydroxymethyl)tetrahydro-2H-pyran-3,4,5-triol]	12	444
OC[C@H]1O[C@@H](c2ccc(Cl)c(Cc3ccc(OCc4cc5c(F)cccc5o4)cc3)c2)[C@H](O)[C@@H](O)[C@@H]1O [Compound I-7, (2S,3R,4R,5S,6R)-2-(4-chloro-3-(4-((4-fluorobenzofuran-2-yl)methoxy)benzyl)phenyl)-6-(hydroxymethyl)tetrahydro-2H-pyran-3,4,5-triol]	14	444

Compounds with a lower IC50 (SGLT-2), results first:

IC50 (SGLT-2) [nM]	IC50 (SGLT-1) [nM]	Structure (SMILES)
6.7	472	OC[C@H]1O[C@@H](c2ccc(Cl)c(Cc3ccc(OCC4Cc5cc(F)ccc5O4)cc3)c2)[C@H](O)[C@@H](O)[C@@H]1O (stereo partly drawn) [Compound I-32, (2S,3R,4R,5S,6R)-2-(4-chloro-3-(4-((5-fluoro-2,3-dihydrobenzofuran-2-yl)methoxy)benzyl)phenyl)-6-(hydroxymethyl)tetrahydro-2H-pyran-3,4,5-triol]
4.3	1190	OC[C@H]1O[C@@H](c2ccc(Cl)c(Cc3ccc(OC[C@H]4Cc5ccccc5O4)cc3)c2)[C@H](O)[C@@H](O)[C@@H]1O [Compound I-24, (2S,3R,4R,5S,6R)-2-(4-chloro-3-(4-(((R)-2,3-dihydrobenzofuran-2-yl)methoxy)benzyl)phenyl)-6-(hydroxymethyl)tetrahydro-2H-pyran-3,4,5-triol]
1	608	OC[C@H]1O[C@@H](c2ccc(Cl)c(Cc3ccc(OC[C@@H]4OCc5ccccc54)cc3)c2)[C@H](O)[C@@H](O)[C@@H]1O [Compound I-38, (2S,3R,4R,5S,6R)-2-(4-chloro-3-(4-(((R)-1,3-dihydroisobenzofuran-1-yl)methoxy)benzyl)phenyl)-6-(hydroxymethyl)tetrahydro-2H-pyran-3,4,5-triol]
6.2	599	OC[C@H]1O[C@@H](c2ccc(Cl)c(Cc3ccc(OCC4Cc5ccc(F)cc5O4)cc3)c2)[C@H](O)[C@@H](O)[C@@H]1O (stereo partly drawn) [Compound I-33, (2S,3R,4R,5S,6R)-2-(4-chloro-3-(4-((6-fluoro-2,3-dihydrobenzofuran-2-yl)methoxy)benzyl)phenyl)-6-(hydroxymethyl)tetrahydro-2H-pyran-3,4,5-triol]
4.6	287	Cc1ccc([C@@H]2O[C@H](CO)[C@@H](O)[C@H](O)[C@H]2O)cc1Cc1ccc(-c2ccc(F)cc2)s1 [B, Canagliflozin, reference compound]
3.9	1310	CC1(COc2ccc(Cc3cc([C@@H]4O[C@H](CO)[C@@H](O)[C@H](O)[C@H]4O)ccc3Cl)cc2)OCc2ccccc21 (single isomer, unassigned) [Compound I-116]
10.2	1810	CC1(COc2ccc(Cc3cc([C@@H]4O[C@H](CO)[C@@H](O)[C@H](O)[C@H]4O)ccc3Cl)cc2)OCc2ccccc21 (stereo partly drawn) [Compound I-108, (2S,3R,4R,5S,6R)-2-(4-chloro-3-(4-((1-methyl-1,3-dihydroisobenzofuran-1-yl)methoxy)benzyl)phenyl)-6-(hydroxymethyl)tetrahydro-2H-pyran-3,4,5-triol]
5.2	997	Cc1ccc([C@@H]2O[C@H](CO)[C@@H](O)[C@H](O)[C@H]2O)cc1Cc1ccc(OCC2(C)OCc3ccccc32)cc1 (single isomer, unassigned) [Compound I-114]
4.1	180	Cc1ccc([C@@H]2O[C@H](CO)[C@@H](O)[C@H](O)[C@H]2O)cc1Cc1ccc(OCC2Cc3ccccc3O2)cc1 (stereo partly drawn) [Compound I-25, (2S,3R,4R,5S,6R)-2-(3-(4-((2,3-dihydrobenzofuran-2-yl)methoxy)benzyl)-4-methylphenyl)-6-(hydroxymethyl)tetrahydro-2H-pyran-3,4,5-triol]
